Legend:
Assay type in all cases: in vivo
insects [1] = test: Insecticidal efficacy / mortality of baits, general statement; conditions: for time to elimination of the insects (delayed mortality): cycloserine exclusively as active ingredient in bait; for difference in kill or duration between D-, L-cycloserine and mixtures: more detailed trials
Method: On the other hand, in addition to the effect of increased palatability, the effect on mortality of compositions containing D-cycloserine, L-cycloserine and DL-cycloserine was investigated.
At this point, we encounter the unexpected situation, not observed in previous trials because it is not usual to determine death within a short time after exposure to the bait (e.g. from a few minutes to a maximum of 24 hours), that baits containing cycloserine exclusively as active ingredient (that is, in a conceptual simplification, water, sugar and cycloserine, or even water with cycloserine), both D-cycloserine and L-cycloserine or their mixtures in any ratio, present delayed mortality, reaching the elimination of the insects they have eaten in up to 7 days.

insects [2] = test: Increase in palatability of baits, general statement; conditions: for comparison of activity of D and L isomers: D-cycloserine, L-cycloserine or mixtures in any ratio; for effect on palatability of baits (in words): general statement
Ceratitis capitata = test: Insecticidal efficacy of bait; conditions: according to our experience
Method: (§1) Flies: Bait is added at 10% in water used by the flies for drinking, placed in 10×10×10 cm^3 ordinary breeding nets, ad libitum.
(§2) Similarly, tests have been carried out with […] with house flies (Musca domestica) and with Mediterranean flies (Ceratitis capitata).

Musca domestica = test: Insecticidal efficacy of bait; conditions: according to our experience
Method: as §1, §2

Aedes aegypti = test: Insecticidal efficacy of bait; conditions: according to our experience
Method: (§3) Mosquitoes: Bait is added at 10% in water used by mosquitoes for drinking, placed in ordinary breeding nets, 10×10×10 cm^3, ad libitum.
(§4) In the case of mosquito tests, the bait is given ad libitum to 50 specimens in 10 cm×10 cm×10 cm^3 cloth cages, using cotton wool impregnated with the baits mentioned above, but with a sugar mix content of only 10%, the rest being compensated by adding more water to the formula, so that it is liquid enough to be absorbed by the mosquitoes.

Aedes albopictus = test: Insecticidal efficacy of bait; conditions: according to our experience
Method: as §3, §4

Culex pipiens = test: Insecticidal efficacy of bait; conditions: according to our experience
Method: as §3, §4

Periplaneta americana = test: Insecticidal efficacy of bait; conditions: according to our experience
From the text: (§5) Cockroaches: The cockroach test protocol, which can be performed at any location with usual temperature and humidity conditions and with field- or insectary-raised cockroaches, consists of collecting cockroaches that are deprived of food for 7 days; on the day of the test, 4 females and 4 males (or the desired number, for individual measurements, only one individual) are placed in boxes in which the bait is placed in a known quantity and the number of visits to the bait is counted every certain time, optionally the quantity ingested every hour or certain minutes is determined by differential weighing. In examples where mortality is considered, the number of individuals turned over per hour (or other defined time) is observed. The bait is removed and replaced with a standard bait-such as pelleted dog food and a water source, such as moistened cotton wool- and daily mortality is monitored for one week.

Blattella germanica = test: Insecticidal efficacy of bait; conditions: according to our experience
From the text: as §5

Blatta orientalis = test: Insecticidal efficacy of bait; conditions: according to our experience
From the text: as §5

Bactrocera cucurbitae = test: Insecticidal efficacy of bait; conditions: according to our experience
cockroach = test: Transfer of lethal effect by cannibalism; conditions: cockroach offered a cycloserine-treated cockroach
From the text: This circumstance, in addition to the use of cycloserine to increase the palatability of the baits, means that cycloserine can be used as an insecticide and also with an infrequent, or even unknown, particularity in pest control, i.e. the treated insects die in extraordinarily (relatively) long times of up to 7 days. This, which in principle may seem a disadvantage, is not so in certain cases, since it allows the ants to have more time to live functionally well, without external signs of intoxication that could warn other ants, and to transmit the bait by tropholaxy to the queen ant (or queen ants of the same anthill, when this is the case) and thus more effectively destroy the anthill. Similarly, the alertness (if any) of conspecifics to a dead cockroach near the bait is suppressed. […] Similarly, for long-term pest control, immediacy is not an insurmountable requirement, so it is also applicable in mosquito control to prevent disease transmission or pest control in agriculture.

Culex quinquefasciatus = test: Insecticidal efficacy of bait; conditions: according to our experience
Method: as §3

Anopheles gambiae = test: Insecticidal efficacy of bait; conditions: according to our experience
Method: as §3

Periplaneta america = test: Test 2A: palatability in terms of grams ingested (Example 2); conditions: cockroach test of Example 2
From the text: as §5
A similar test was performed with Periplaneta america, Blattella germanica and Blatta orientialis cockroaches, as detailed below for the first species. In this case, it was possible to evaluate the amount of bait ingested per individual, with the formulas of this example corresponding to those of Example 1, but replacing the 20% fructose in all of them by 20% commercial hazelnut cream, so that we have the formulations C.2.1, P.2.1, P.2.2, P.2.3 with that change only.

Lasius niger [3] = test: Insecticidal efficacy of bait; conditions: according to our experience
Method: (§6) Ants: The tests are conducted in transparent plastic boxes covered on top with a mixture of ethanol and talcum powder (talcol) which prevents ants from fleeing. A drop of bait is placed on a holder, and the holder is placed with 10-30 ants and the behaviour of the ants is observed.
(§7) The number of ants eating bait is counted every minute until 10′ and every 5 minutes until 30′. The boxes with ants are kept with the sample, with a source of humidity and alternative food to observe mortality at 24 hours and 48 hours.

Linepithema humile = test: Insecticidal efficacy of bait; conditions: according to our experience
Method: as §6, §7

Simuliidae ssp. = test: Insecticidal efficacy of bait; conditions: according to our experience
Bactrocera oleae = test: Insecticidal efficacy of bait; conditions: according to our experience
Lasius niger [4] = test: Palatability of imidacloprid ant bait (Example 3); conditions: 0.01 wt. % imidacloprid in bait
Method: as §6, §7
To test the combination effect of cycloserine and/or phloxine with known insecticides used in baits, we used an ant bait-type composition and its equivalents of Example 1, but containing 0.01 wt. % of the insecticide imidacloprid. Serine was also tested in parallel instead of cycloserine.
The bait is offered to them, in boxes containing 10 Lasius niger ants each, for 3 hours, during which time palatability is observed.

ants = test: Example 1 baits with serine, increase in palatability vs control (results not shown); conditions: serine instead of cycloserine, or combinations
Method: as §6, §7
On the other hand (results not shown), when serine is used instead of cycloserine in the bait, an increase in palatability is also observed, although somewhat lower, around 1.5-1.7 times compared to the control, and when serine, cycloserine and phloxine B, or serine and phloxine B are combined, this increase is 1.7-1-8 times compared to the control, with no appreciable differences between these last two combinations.

Compound: N[C@@H]1CONC1=O [D-cycloserine]
- time to elimination of the insects (delayed mortality) (insects [1]): up to 7 days
- difference in kill or duration between D-, L-cycloserine and mixtures (insects [1]): no significant difference in kill or duration
- comparison of activity of D and L isomers (insects [2]): we have not seen an activity of one isomer greater than the other

Compound: N[C@H]1CONC1=O [L-cycloserine]
- time to elimination of the insects (delayed mortality) (insects [1]): up to 7 days
- difference in kill or duration between D-, L-cycloserine and mixtures (insects [1]): no significant difference in kill or duration
- comparison of activity of D and L isomers (insects [2]): we have not seen an activity of one isomer greater than the other

Compound: N[C@@H]1CON=C1O [cycloserine]
- time to elimination of the insects (delayed mortality) (insects [1]): up to 7 days
- efficacy as an insecticide (Ceratitis capitata): great efficacy
- efficacy as an insecticide (Musca domestica): great efficacy
- efficacy as an insecticide (Aedes aegypti): great efficacy
- efficacy as an insecticide (Aedes albopictus): great efficacy
- efficacy as an insecticide (Culex pipiens): great efficacy
- efficacy as an insecticide (Periplaneta americana): great efficacy
- efficacy as an insecticide (Blattella germanica): great efficacy
- efficacy as an insecticide (Blatta orientalis): great efficacy
- efficacy as an insecticide (Bactrocera cucurbitae): great efficacy
- transfer of lethal effect to another cockroach (cockroach): lethal effect of cycloserine on one cockroach is transferred to another cockroach
- efficacy as an insecticide (Culex quinquefasciatus): great efficacy
- efficacy as an insecticide (Anopheles gambiae): great efficacy
- effect on palatability (in words) (Periplaneta america): more pronounced
- efficacy as an insecticide (Lasius niger [3]): great efficacy
- efficacy as an insecticide (Linepithema humile): great efficacy
- efficacy as an insecticide (Simuliidae ssp.): great efficacy
- comparison of activity of D and L isomers (insects [2]): activity we have observed to be the same
- effect on palatability of baits (in words) (insects [2]): shown to increase the palatability of baits
- efficacy as an insecticide (Bactrocera oleae): great efficacy

Compound: O=[N+]([O-])NC1=NCCN1Cc1ccc(Cl)nc1 [imidacloprid]
- bait rejection (Lasius niger [4]): does not cause bait rejection

Compound: O=C([O-])c1c(Cl)c(Cl)c(Cl)c(Cl)c1-c1c2cc(Br)c(=O)c(Br)c-2oc2c(Br)c([O-])c(Br)cc12.[Na+].[Na+] [phloxine B]
- effect on palatability of baits (in words) (insects [2]): shown to increase the palatability of baits

Compound: N[C@@H](CO)C(=O)O [serine]
- effect on palatability (in words) (Periplaneta america): increases palatability, but to a lesser extent than cycloserine
- increase in palatability compared to the control (ants): 1.5-1.7 times
- effect on palatability of baits (in words) (insects [2]): shown to increase the palatability of baits
